From patent publication US20250154165A1, “MULTIANTENNARY GLYCOLIPID MIMETICS” (CONSEJO SUPERIOR DE INVESTIGACIONES CIENTÍFICAS (CSIC), priority 2021, published 2025)

How the values were obtained:
[1] = test system: Splenocytes treated with αGalCer; assay: Suppression of αGalCer-induced inflammation (splenocytes in vitro); type: cell-based, mouse; conditions: splenocytes treated concurrently with compound and αGalCer (FIG. 5)
Protocol: FIG. 5. […] Splenocytes were treated concurrently with the compounds of the invention and αGalCer to assess the suppressive function of compounds on αGalCer-induced inflammation, with several compounds showing prominent suppressive function.
(§1) The whole spleen was surgically removed from a mouse and mechanically dissociated into a single cell suspension of splenocytes, which were then cultured in the complete RPMI 1640 medium (cRPMI). Human peripheral blood mononuclear cells (PBMCs) from healthy volunteers were collected from whole blood through gradient-centrifugation with Histopaque-1077 (Sigma-Aldrich).
Splenocytes were treated concurrently with the compounds of the invention and αGalCer to assess their ability to suppress αGalCer-induced inflammation.

[2] = test system: Splenocytes treated with LPS; assay: Suppression of LPS-induced inflammation (splenocytes in vitro); type: cell-based, mouse; conditions: splenocytes treated concurrently with compound and LPS (FIG. 1)
Protocol: FIG. 1. […] Splenocytes were treated concurrently with the compounds of the invention and LPS to assess the suppressive function of compounds on LPS-induced inflammation, with several compounds showing prominent suppressive function.
as §1
Splenocytes were treated concurrently with the compounds of the invention and LPS to assess the suppressive function of compounds on LPS-induced inflammation.

[3] = test system: Splenocytes; assay: Immune-stimulating function of compounds alone (splenocytes in vitro); type: cell-based, mouse; conditions: for Th1/Th2 bias: concluded from IFNγ and IL-4 secretion of splenocytes (FIG. 6); for IFNγ secretion / IL-4 secretion: splenocytes treated with compound alone (FIG. 6)
Protocol: FIG. 6. […] Splenocytes were treated with the compounds of the invention alone to assess the immune-stimulating function of the compounds. Compounds 12, 18, 22, 27, and 29 induced significant IFNγ secretion, and compound 8 induced significant IL-4 secretion.
as §1
Splenocytes were treated with the compounds of the invention alone to assess the immune-stimulating function of the compounds by measuring their ability to promote the secretions of IFN-γ and IL-4.

[4] = test system: OVA-induced AHR mouse model; assay: Suppression of OVA-induced airway hyperreactivity (AHR) in vivo; conditions: OVA-induced AHR mouse model (FIG. 7)
Protocol: FIG. 7. […] The capability of selected compounds 8, 12, 18, and 27 in suppressing Th2 inflammation in vivo was assessed using the OAV-induced AHR mouse model.
(§2) For ovalbumin (OVA) challenge, mice were sensitized intraperitoneally (i.p.) with 50 μg of OVA with 2% alhydrogel adjuvant (InvivoGen). Mice were challenged three times with 50 μg of OVA on day 7 post-sensitization, either daily or every other day. Mice were sacrificed the day after the last OVA challenge. The scheme of the OT-1 adoptive transfer mouse model for examining the proliferation of CD8^+ T cells in adjuvanting OVA challenge is described in FIG. 13.
Mice were anesthetized with 100 mg per kg body weight pentobarbital (Sigma-Aldrich), tracheotomised and mechanically ventilated via the FinePointe RC system (Buxco Research Systems, Wilmington, NC). Lung function was assessed by measuring lung resistance and dynamic compliance in response to increasing doses of aerosolized methacholine (1.25-40 mg/mL, Sigma-Aldrich).
(§3) Using the Th2 OVA-induced AHR mouse model, we assessed the capability of selected compounds 8, 12, 18, and 27 in suppressing Th2 inflammation.

[5] = test system: OVA-induced AHR mouse model; assay: Suppression of OVA-induced airway inflammation in vivo (IL-13 and IL-4 in BALF and lungs); conditions: OVA-induced AHR experiment; for IL-4 protein level in lungs / IL-13 protein level in lungs: lung protein (FIG. 9); for IL-4 level in BALF / IL-13 level in BALF: bronchoalveolar lavage fluid (FIG. 8)
Protocol: FIG. 8. […] The bronchoalveolar lavage fluid (BALF) from mice in the OAV-induced AHR experiment was examined forth IL-13 and IL-4 levels.
FIG. 9. […] The lungs from mice in the OAV-induced AHR experiment was examined for their IL-13 and IL-4 protein level.
FIG. 10. […] The lungs from mice in the OAV-induced AHR experiment was examined for their IL-13 and IL-4 mRNA levels.
as §2
Upon exposure of the trachea, the lungs were lavaged twice with 1 mL of PBS supplemented with 2% fetal calf serum (FCS). BALF was pooled and bronchoalveolar (BAL) cells were pelleted by centrifugation and fixed onto cytospin slides. The slides were stained with Diff-Quik solution (Polysciences Inc) and BAL differential cell count was performed.
as §3

[6] = test system: B6 mice; assay: Adjuvancy function in vivo (serum IFNγ and IL-4 after injection)
Protocol: FIG. 11. […] The adjuvancy capability of the selected compounds 8, 12, 18, 27, and 29 in vivo was assessed by measuring the serum level of IFNγ and IL-4 induced after injecting them into B6 mice.
Besides assessing the ability of the new compounds to suppress inflammation, we also looked into their function to act as adjuvants, i.e. their ability to promote desirable immunological trends in the development of vaccines. We measured the in vivo adjuvancy capability of selected compounds 8, 12, 18, 27, and 29 in inducing IFNγ and IL-4 in B6 mice (FIG. 11).

[7] = test system: glycosidases of human fibroblast lysates; assay: Stability of the glycosidic linkage to glycosidases upon incubation with human fibroblast lysates; type: in vitro ADME; conditions: 4 h, 37° C., compound solution 200 μM, 0.1 M citrate buffer pH 4.5
Protocol: The stability of the glyosidic linkage in compounds 2, 4, 6, 8, 10, 12, 14, 16, 18, 20, 22, 23, 25, 27 and 29, selected as representative examples, upon incubation with human fibroblast lysates for 4 h was checked. For such purpose, cells were scraped into ice-cold H2O (10^6 cells mL^−1) and lysed by sonication. Insoluble materials were removed by centrifugation at 15,000 rpm for 5 min and protein concentrations were determined with Protein Assay Rapid Kit (WAKO, Tokyo, Japan). 10 μL of the lysates in 0.1% Triton X-100 in distilled water were incubated at 37° C. with 20 μL of the compound solution (200 μM) in 0.1 M citrate buffer, pH 4.5. In control experiments, the activity of several lysosomas glycosidases was confirmed using fluorescent substrates. The substrates were 4-methylumbelliferone (4-MU)-conjugated β-D-glucopyranoside (for GCase), α-D-glucopyranoside (for α-glucosidase), α-D-galactopyranoside (for α-Galase) and β-D-galactopyranoside (for β-galactosidase). The liberated 4-methylumbelliferone was measured in the black-well plate with a Perkin Elmer Luminescence Spectrometer (excitation wavelength: 340 nm; emission: 460 nm).

[8] = test system: bone marrow-derived macrophages (BMDM) treated with LPS; assay: Suppression of LPS-induced inflammation in bone marrow-derived macrophages (BMDM in vitro); type: cell-based; conditions: LPS-induced, BMDM (FIG. 2)
Description: Since macrophage is the major responder to LPS-induced inflammation, we assessed the capability of selected compounds to suppress LPS-induced inflammation in bone marrow-derived macrophages (BMDM).

[9] = 2 hours after injection (FIG. 11)
[10] = 18 hours after injection (FIG. 11)

| Structure (SMILES) | suppressive function on LPS-induced inflammation [2] | Th1/Th2 bias [3] | IFNγ secretion [3] | IL-4 secretion [3] | IL-4 protein level in lungs [5] | IL-13 protein level in lungs [5] | serum level of IFNγ induced [6, 9] | serum level of IL-4 induced [6, 9] | serum level of IFNγ induced [6, 10] | serum level of IL-4 induced [6, 10] | also measured |
| --- | --- | --- | --- | --- | --- | --- | --- | --- | --- | --- | --- |
| CCCCCCCCCCCCCCCCCCCCCCCCCC(=O)N[C@@H](CO[C@@H]1C(O)[C@@H](O)[C@H](O)C2COC(=O)N21)[C@H](O)[C@H](O)CCCCCCCCCCCCCC (some centres unmarked) [Compound 2] | – | – | – | – | – | – | – | – | – | – | suppressive function on αGalCer-induced inflammation [1]: prominent inflammation-suppressing function |
| CCCCCCCCCCCCCCCCCCCCCCCCCC(=O)N[C@@H](CO[C@@H]1C(O)[C@@H](O)[C@@H](O)C2COC(=O)N21)[C@H](O)[C@H](O)CCCCCCCCCCCCCC (some centres unmarked) [Compound 6] | – | – | – | – | – | – | – | – | – | – | suppressive function on αGalCer-induced inflammation [1]: prominent inflammation-suppressing function |
| CCCCCCCCCCCCCC[C@@H](O)[C@@H](O)[C@H](CO[C@@H]1C(O)[C@@H](O)[C@@H](O)C2COC(=O)N21)n1cc(CCCCCCCC)nn1 (some centres unmarked) [Compound 8] | prominent inflammation-suppressing function | Th2-biased | not IFNγ | proficient at inducing IL-4 secretion | only showed significant suppression on IL-13 | significant suppression | significant capability in inducing | significant capability in inducing | significant detectable level | significant detectable level | suppression of airway hyperreactivity (AHR) [4]: can suppress AHR onset |
| CCCCCCCCCCCCCCC(O)C(O)C(COC1C(O)C(O)C(O)C2COC(=O)N21)n1cc(CCCCCCCCCCCC)nn1 (centres unmarked) [Compound 10] | prominent inflammation-suppressing function | – | – | – | – | – | – | – | – | – | hydrolysis of the glycolipid mimetic (free polysubstituted 2-oxa-3-oxoindolizidine detected by gas chromatography) [7]: No traces of the free polysubstituted 2-oxa-3-oxoindolizidine |
| CCCCCCCCCCCCNC(=O)[C@H](CO[C@@H]1C(O)[C@@H](O)[C@H](O)C2COC(=O)N21)NC(=S)NCCCCCCCC (some centres unmarked) [Compound 14] | prominent inflammation-suppressing function | – | – | – | – | – | – | – | – | – | – |
| CCCCCCCCCCCCNC(=O)[C@H](CS[C@@H]1C(O)[C@@H](O)[C@H](O)C2COC(=O)N21)NC(=O)CCCCCCCCCCC (some centres unmarked) [Compound 18] | prominent inflammation-suppressing function | Th1-biased | effective in promoting the productions of IFNγ | not IL-4 | only showed significant suppression on IL-13 | significant suppression | significant serum IFNγ level | only showed significant serum IFNγ level | significant serum IFNγ level | only showed significant serum IFNγ level | suppression of airway hyperreactivity (AHR) [4]: can suppress AHR onset; IL-4 level in BALF [5]: significant suppression; IL-13 level in BALF [5]: only showed significant suppression on IL-4 |
| CCCCCCCCCCCCNC(=O)[C@H](CS[C@@H]1C(O)[C@@H](OCc2ccccc2)[C@H](O)C2COC(=O)N21)NC(=O)CCCCCCCCCCC (some centres unmarked) [Compound 20] | prominent inflammation-suppressing function | – | – | – | – | – | – | – | – | – | – |
| CCCCCCCCCCCCCC(=O)N[C@@H](CS[C@@H]1C(O)[C@@H](O)[C@H](O)C2COC(=O)N21)C(=O)NCCCCCCCCCCCC (some centres unmarked) [Compound 22] | – | Th1-biased | effective in promoting the productions of IFNγ | not IL-4 | – | – | – | – | – | – | – |
| CCCCCCCCCCCCNC(=O)[C@H](CO[C@@H]1C(O)[C@@H](O)[C@@H](O)C2COC(=O)N21)NC(=O)CCCCCCCCCCC (some centres unmarked) [Compound 27] | – | Th1-biased | effective in promoting the productions of IFNγ | not IL-4 | only showed significant suppression on IL-13 | significant suppression | significant capability in inducing | significant capability in inducing | significant detectable level | significant detectable level | suppression of IL-6 [8]: significant suppression; suppression of TNFα [8]: significant suppression; IL-4 level in BALF [5]: only showed significant suppression on IL-13; IL-13 level in BALF [5]: significant suppression |
| CCCCCCCCCCCCNC(=O)[C@H](CS[C@@H]1C(O)[C@@H](O)[C@@H](O)C2COC(=O)N21)NC(=O)CCCCCCCCCCC (some centres unmarked) [Compound 29] | – | Th1-biased | effective in promoting the productions of IFNγ | not IL-4 | – | – | significant capability in inducing | significant capability in inducing | significant detectable level | significant detectable level | – |
